Values of other authors in patent US6174531A, “Methods of preparation of bioginkgo” (priority 1998, dated 2001).
Like-named read-outs stand apart in the source and are kept apart here.

Legend:
[1] = tested on: PAF platelet membrane receptor; settings: in vitro, literature
[2] = rats, literature
[3] = humans, literature

| Structure (SMILES) | specificity of inhibition of PAF binding to its platelet receptors [1] | IC50 ([1]; read-out: IC50, inhibition of PAF binding to its platelet receptors) | half-life compared with ginkgolide A [2] | half-life compared with ginkgolide A [3] |
| --- | --- | --- | --- | --- |
| C[C@@H]1C(=O)O[C@H]2C[C@@]34[C@H]5C[C@@H](C(C)(C)C)[C@]36[C@@H](OC(=O)[C@@H]6O)O[C@@]4(C(=O)O5)[C@]21O [ginkgolide A] | highly specific |  |  |  |
| CC1C(=O)OC2C(O)C34C5CC(C(C)(C)C)C36C(OC(=O)C6O)OC4(C(=O)O5)C12O (stereo not drawn) [ginkgolide B] | highly specific | ~100 nM | longer half-life | longer half-life |
| CC1C(=O)OC2C(O)C34C5OC(=O)C3(OC3OC(=O)C(O)C34C(C(C)(C)C)C5O)C12O (stereo not drawn) [ginkgolide C] | highly specific |  |  |  |
